Here are results for 1 compound from patent US11485701B2, “Insect repellent compounds and compositions, and methods thereof” (Iowa State University Research Foundation, Inc., priority 2016, dated 2022).

SMILES strings stand for the structures. Read-outs that look alike come from different tables or passages of the source.

For the assay, the system named is Northern house mosquitoes (Culex pipiens). Description: Long-term spatial repellency, static air repellency chamber, filter papers air-dried 5 hours. Particulars: Culex pipiens, 1 mL of 0.5% solution in acetone, air-dried 5 hours. Format: in vivo. The essentials: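 Adult female Culex pipiens, 5–7 days post-emergence, held at 27 °C, 80% RH and 16:8 light:dark, about 20 per replicate in a 9 × 60 cm glass static-air chamber. Filter paper treated with 0.5% compound in acetone and air-dried 5 h is placed at one end; acetone-only papers are the control. Percentage spatial repellency is scored from mosquito distribution at 15–150 min, 4 replicates.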

Turning to `CC(C)=CCCC(C)CC(=O)OCC(C)O` (stereo not drawn) [Compound 2144, 2-hydroxypropyl citronellate], the pest or weed control at 0.5 % (0.25 h, 15 min, read-out: Long-term Percentage repellency 15 min) was 12.5%; the pest or weed control at 0.5 % (1.5 h, 90 min, read-out: Long-term Percentage repellency 90 min) came out at 20%; the pest or weed control at 0.5 % (2.5 h, 150 min, read-out: Long-term Percentage repellency 150 min) amounted to 35%.
